The text below walks through data of paper PMC9695821, “Synthesis and Evaluation of NF-κB Inhibitory Activity of Mollugin Derivatives” (Molecules, 2022).

SMILES strings stand for the structures. Marks after values point to notes of the source that are not given here.

Series [1] deals with NF-κB transcriptional activity. Briefly: NF-κB luciferase reporter assay in HeLa cells. As to conditions: for IC50: Homo sapiens, NF-κB luciferase reporter, 24 h treatment, hypoxic conditions, mean, n = 3. It counts as cell-based. As for the experimental part:
A NF-κB-Luc plasmid for NF-κB luciferase reporter assay was obtained from Strategene (La Jolla, CA, USA). Transfections were performed as previously described. NF-κB-dependent luciferase activity was measured using the Dual-luciferase reporter assay system. Briefly, HeLa cells (1 × 10^5 cells/well) were seeded in a 96-well plate for 24 h. The cells were then transfected with plasmids for each well and then incubated for a transfection period of 24 h. […] Luciferase activity was determined in MicroLumat plus luminometer (EG&G Berthold, Bad Wildbad, Germany) by injecting 100 µL of assay buffer containing luciferin and measuring light emission for 10 s. Co-transfection with pRL-CMV (Promega, Madison, WI, USA), which expresses Renilla luciferase, was performed to enable normalization of data for transfection efficiency.
For orientation: In a reporter assay the amount or activity of a reporter protein is the signal.

Series [2] deals with HeLa cells. The experiment in a line: MTT cytotoxicity / cell viability assay. It counts as cell-based. As to conditions: for IC50 Cytotoxicity: MTT assay, 24 h treatment, normoxic conditions, mean, n = 3. As to the method:
(§1) HeLa cells were inoculated and cultured in 96-well plates. After the cells adhered to the wall, the prepared target compounds with different concentrations were added to all plates for 24 h and then cultured in 5 mg/mL MTT solution for 4 h. The culture solution in the holes was sucked out, and DMSO reagent was added. After the crystallization was fully dissolved, the absorbance at 570 nm was measured by Multiskan GO.
On the technique in general: Formazan colour is commonly taken as a measure of viable cells.

Series [3] can be described thus: MTT cytotoxicity / cell viability assay. As to conditions: human; MTT assay, HeLa cells, 24 h treatment, normoxic conditions; mean, n = 3. It counts as cell-based. As to the method: as §1
For series [4], the system named is xylene-induced ear edema. Briefly: Xylene-induced ear edema test, initial screening (i.p.). It counts as in vivo. As to conditions: mice; for inhibition in vivo at 100 mg/kg: Mus musculus, ip, 0.5 h, n = 6, read-out: Inhibition Rate; for Edema Mean ± SD: 100 mg/kg, n = 6. As to the method:
In vivo inhibition test of xylene induced ear edema in mice was performed to evaluate its anti-inflammatory activity.
In the initial screening, mice (male) were randomly divided into experimental group, positive control drug ibuprofen and Mesalazine group, and blank group. All target compounds were dissolved in dimethyl sulfoxide, and corresponding drugs were intraperitoneally injected into experimental group, positive control group and blank group, respectively. Mice were treated with 100 mg/kg, 0.1 mL/20 g body weight, and control mice received only DMSO (0.1 mL/20 g body weight). After 30 min, 20 μL of xy-lene was evenly applied on both sides of the right ear of the mice. After 30 min of xy-lene was applied, the mice were sacrificed by cutting off their necks. Then the left and right ears of the mice were drilled with a hole punch with a diameter of 7 mm, respec-tively, to obtain two round ear pieces. The degree of swelling (right ear mass–left ear mass) was calculated for each sample, and the swelling inhibition rate of each drug was calculated using the following formula. The inhibition rate of swelling degree (%) = (mean ear swelling degree of mice in blank group […] mean ear swelling degree of mice in target compound group)/mean ear swelling degree of mice in blank group × 100%. The data were processed by GraphPadPrism 5 and expressed as mean data ± SEM. One-way ANOVA method was used for statistical analysis of relevant data. A value of p < 0.05 in the chart indicates significant and statistically significant data dif-ference.

For series [5], the system named is xylene-induced ear edema. Briefly: Xylene-induced ear edema test, deep screening (oral). It counts as in vivo. As to conditions: mice. As to the method: In the deep screening, mice were divided into target compound group, positive control group (ibuprofen), and blank group (8 male mice in each group). Target com-pound and ibuprofen were dissolved in sodium carboxymethyl cellulose aqueous solu-tion (sodium carboxymethyl cellulose to water, mass ratio 1:1000); the blank group was sodium carboxymethyl cellulose aqueous solution (sodium carboxymethyl cellu-lose to water, mass ratio 1:1000). The anti-inflammatory activities of each compound in the target compound group, positive control group, and blank group were measured at 1, 2, 3, 4, 6, 9, 12 and 24 h after taking the drug. The experimental operation and calculation method are the same as the initial screening part.

Series [6] has as its system p65. Briefly: Western blot of nuclear extracts, TNF-α-induced p65. It counts as cell-based. In general terms: In western blotting, separated proteins are transferred to a membrane and probed.

Usually melting point stands for the temperature of the solid-liquid transition. The IC50 is the midpoint of a concentration-inhibition curve. Low values mean greater potency, high ones weaker potency. `COC(=O)c1c2c(c3ccccc3c1OCC(=O)Nc1ccc(OC)cc1)OC(C)(C)C=C2` [Compound 4d, Methyl 6-(2-((4-methoxyphenyl)amino)-2-oxoethoxy)-2,2-dimethyl-2H-benzo [h] chromene-5-carboxylate] came in with a melting point of 126 to 128 °C. In addition, the midpoint of inhibition in series [1], the IC50, lay at 88.2 µM. In addition, the “IC50 Cytotoxicity” value in series [2] is on record as “no significant cell toxicity”. The IC50 at 24 h in series [3] was > 100 µM. In addition, in series [4], the inhibition in vivo at 100 mg/kg worked out at 61.9% and the “Edema Mean ± SD” value amounted to 2.5167 ± 0.6890 mg.
For the compound `COC(=O)c1c2c(c3ccccc3c1OCC(=O)Nc1ccc(C)cc1)OC(C)(C)C=C2` [Compound 4e, Methyl 2,2-dimethyl-6-(2-oxo-2-(p-tolylamino)ethoxy)-2H-benzo [h] chromene-5-carboxylate], the melting point lay within 120 to 122 °C. Besides, half-maximal inhibition in series [1] (IC50) required 55.1 µM. The “IC50 Cytotoxicity” value in series [2] is listed as “no significant cell toxicity”. The IC50 at 24 h in series [3] was > 100 µM. Besides, in series [4], the inhibition in vivo at 100 mg/kg turned out to be 41.4% and the “Edema Mean ± SD” value amounted to 3.8667 ± 1.2023 mg.
Compound `COC(=O)c1c2c(c3ccccc3c1OCC(=O)Nc1ccc(F)cc1)OC(C)(C)C=C2` [Compound 4f, Methyl 6-(2-((4-fluorophenyl)amino)-2-oxoethoxy)-2,2-dimethyl-2H-benzo [h] chromene-5-carboxylate] returned a melting point of 132 to 134 °C. This compound also registered an IC50 in series [1] of 18.5 µM. In addition, in series [2], the “IC50 Cytotoxicity” value was “no significant cell toxicity”. Moreover, in series [3], the IC50 at 24 h is > 100 µM. Moreover, in series [4], the inhibition in vivo at 100 mg/kg turned out to be 83.1% and the “Edema Mean ± SD” value is 1.1167 ± 0.2544 mg. Also, the Inhibition in series [5] (100 mg/kg, time 1 h) worked out at 27.53% ***. The compound further yielded an Inhibition in series [5] (100 mg/kg, time 2 h) of 37.12% ***. Besides, the Inhibition in series [5] (100 mg/kg, time 3 h) is 46.46% ***. Also, the Inhibition in series [5] (100 mg/kg, time 4 h) was 58.08% ***. This compound gave an Inhibition in series [5] (100 mg/kg, time 9 h) of 43.94% ***. This compound came in with an Inhibition in series [5] (100 mg/kg, time 12 h) of 35.35% ***. The Inhibition in series [5] (100 mg/kg, time 24 h) is given as 26.01% ***. This compound also had an Inhibition in series [5] (dose series, 25 mg/kg, 6 h) of 46.46% **. The compound also showed an Inhibition in series [5] (dose series, 50 mg/kg, 6 h) of 53.08% ***.
On to `COC(=O)c1c2c(c3ccccc3c1OCC(=O)Nc1ccc(CC#N)cc1)OC(C)(C)C=C2` [Compound 4i, Methyl 6-(2-((4-(cyanomethyl)phenyl)amino)-2-oxoethoxy)-2,2-dimethyl-2H-benzo [h] chromene-5-carboxylate], for which the melting point lay in the range of 115 to 117 °C. In series [1], this compound gave an IC50 of 22.9 µM. The “IC50 Cytotoxicity” value in series [2] is reported as “no significant cell toxicity”. Moreover, the IC50 at 24 h in series [3] was > 100 µM. In series [4], the inhibition in vivo at 100 mg/kg was found to be 59.1% and the “Edema Mean ± SD” value amounted to 2.7000 ± 0.4619 mg.
Consider `COC(=O)c1c2c(c3ccccc3c1OCC(=O)Nc1ccc3ncccc3c1)OC(C)(C)C=C2` [Compound 6d, Methyl 2,2-dimethyl-6-(2-oxo-2-(quinolin-6-ylamino)ethoxy)-2H-benzo [h] Chromene-5-carboxylate], for which the melting point lay in the range of 135 to 137 °C. Further, in series [1] (Figure 2A), the “inhibition of NF-κB luciferase activity, dose dependence” value is “dose-dependent inhibition”. This compound also gave an IC50 in series [1] of 3.81 µM. The cell viability entry in series [2] (30 µM, 24 h, Figure 2B) was “did not adversely affect the cell viability”. For the same compound, in series [2], the “IC50 Cytotoxicity” value is “did not show any significant cytotoxicity”. For the same compound, the IC50 at 24 h in series [3] is > 100 µM. Moreover, in series [6] (HeLa cells, 100 µM), the “TNF-α-induced expression of p65” value was “inhibited TNF-α-induced expression of p65”. Further, the “TNF-α-induced p65 phosphorylation” value in series [6] (HeLa cells, 10, 30, 100 µM for 12 h, then 10 ng/mL TNF-α 30 min, nuclear extracts) is “significantly inhibited TNF-α-induced p65 phosphorylation in a dose-dependent manner”. Also, in series [4], the inhibition in vivo at 100 mg/kg came to 76.8%. Further, the Inhibition in series [5] (100 mg/kg, time 1 h) came out at 25.76% ***. Also, the Inhibition in series [5] (100 mg/kg, time 2 h) was found to be 33.84% ***. The Inhibition in series [5] (100 mg/kg, time 3 h) was determined as 41.92% ***. Further, the Inhibition in series [5] (100 mg/kg, time 4 h) was found to be 52.53% ***. The Inhibition in series [5] (100 mg/kg, time 9 h) is reported as 37.63% ***. This compound also came in with an Inhibition in series [5] (100 mg/kg, time 12 h) of 31.82% ***. The compound further returned an Inhibition in series [5] (100 mg/kg, time 24 h) of 25.25% ***. The same compound showed an Inhibition in series [5] (dose series, 25 mg/kg, 6 h) of 41.92% **. Besides, in series [5] (dose series, 50 mg/kg, 6 h), the Inhibition is given as 46.32% ***.
Take `COC(=O)c1c2c(c3ccccc3c1OCC(=O)Nc1ccc(C)nc1)OC(C)(C)C=C2` [Compound 6i, Methyl 2,2-dimethyl-6-(2-((6-methylpyridin-3-yl)amino)-2-oxoethoxy)-2H-benzo [h] chromene-5-carboxylate]: the melting point was 119 to 121 °C. Further, the IC50 in series [1] is > 100 µM. The IC50 at 24 h in series [3] is > 100 µM. Also, in series [4], the inhibition in vivo at 100 mg/kg stood at 42.9% and the “Edema Mean ± SD” value is 3.7667 ± 1.1571 mg.
`COC(=O)c1c2c(c3ccccc3c1OCC(=O)Nc1cccc3cccnc13)OC(C)(C)C=C2` [Compound 6j, Methyl 2,2-dimethyl-6-(2-oxo-2-(quinolin-8-ylamino)ethoxy)-2H-benzo [h] chromene-5-carboxylate] yielded a melting point of 113 to 115 °C. This compound also showed an IC50 in series [1] of 18.6 µM. For the same compound, the IC50 at 24 h in series [3] was > 100 µM. In series [4], the inhibition in vivo at 100 mg/kg worked out at 75.2% and the “Edema Mean ± SD” value worked out at 1.6333 ± 0.4384 mg.
`COC(=O)c1c2c(c3ccccc3c1OCC(=O)Nc1ccc3ccccc3n1)OC(C)(C)C=C2` [Compound 6k, Methyl 2,2-dimethyl-6-(2-oxo-2-(quinolin-2-ylamino)ethoxy)-2H-benzo [h] chromene-5-carboxylate] gave a melting point of 116 to 118 °C. The IC50 in series [1] is > 100 µM. Further, the IC50 at 24 h in series [3] is > 100 µM. In addition, in series [4], the inhibition in vivo at 100 mg/kg was 66.9% and the “Edema Mean ± SD” value is 2.1833 ± 0.6414 mg.
For `COC(=O)c1c2c(c3ccccc3c1OCCBr)OC(C)(C)C=C2` [Compound 8a, Methyl 6-(2-bromoethoxy)-2,2-dimethyl-2H-benzo [h] chromene-5-carboxylate], the melting point was in the range of 110 to 112 °C. Besides, the IC50 in series [1] is > 100 µM. For the same compound, the IC50 at 24 h in series [3] was > 100 µM. In series [4], the inhibition in vivo at 100 mg/kg was 57.3% and the “Edema Mean ± SD” value worked out at 2.8167 ± 0.9370 mg.
In the case of `COC(=O)c1c2c(c3ccccc3c1OCCNc1ccccc1)OC(C)(C)C=C2` [Compound 8b, Methyl 2,2-dimethyl-6-(2-(phenylamino)ethoxy)-2H-benzo[h]chromene-5-carboxylate], the melting point lay in the range of 135 to 137 °C. Also, in series [1], the IC50 was > 100 µM. Further, the IC50 at 24 h in series [3] was > 100 µM. In series [4], the inhibition in vivo at 100 mg/kg amounted to 76.5% and the “Edema Mean ± SD” value turned out to be 1.5500 ± 0.3594 mg.
Regarding `COC(=O)c1c2c(c3ccccc3c1OCCNc1ccc(F)cc1)OC(C)(C)C=C2` [Compound 8c, Methyl6-(2-((4-fluorophenyl)amino)ethoxy)-2,2-dimethyl-2H-benzo [h] chromene-5-carboxylate], the melting point lay within 128 to 130 °C. Further, in series [1], the 50% inhibitory concentration (IC50) is > 100 µM. The IC50 at 24 h in series [3] was > 100 µM. Further, in series [4], the inhibition in vivo at 100 mg/kg was 63.9% and the “Edema Mean ± SD” value is reported as 2.3833 ± 0.7104 mg.
